“Also recorded” adds a separate entry of the source. No end group written: not given here.
Columns and labels:
Type in all cases: cell-based, human
PBMC [1] = experiment: ELISpot IFN-γ assay with PBMC of AdPfCA / DNA-primed volunteers (Example 2); conditions: 12 wk post challenge
Description: To more clearly define immunological active regions of AMA1, PBMCs were isolated from AMA1 immunized volunteers. Two groups of volunteers, i.e., Gp 1 (from example 1, above) and Gp2, received 2×10^10 particle units of AdPfCA (NMRC-M3V-Ad-PfCA, NMRC+Multi-antigen Multi-stage, Malaria Vaccine+Adenovector+P. falciparum CSP & AMA1 antigens). The vaccine is a combination of two separate recombinant Ad5 constructs, one expressing full length CSP and the other expressing full length apical membrane antigen 1 (AMA1). AdPfCA expressed the AMA1 regions A1 through A12. Twenty-eight (28) days later, PBMC's were collected.
In a third group (termed preCh in FIG. 7 and FIG. 8), fifteen volunteers were primed with three doses (2 mg/dose) with one month between doses. Sixteen weeks after the final DNA priming dose, each volunteer received 2×10^10 particle units of AdPfCA. PBMC's were collected on day 22-23 after receiving AdPfCA. The region of the AMA gene expressed by the DNA expression plasmid is also illustrated in FIG. 6. The DNA vaccine expressed approximately half of the A1 region of AMA1, the entire regions of A2 through A10 and a portion of A11. As in Gp 1 and Gp 2, AdPfCA expressed the AMA1 regions A1 through A12.
(§1) The stimulation of circulating antigen-specific T cell lymphocytes was evaluated by measurement of γ-IFN induction by ELISPOT. The ELISpot assay was conducted using thawed cryopreserved PBMC at 200 K cells per well. Pre-challenge cells were taken at day 21 and day 22 post AdPfCA vaccination. Cells were suspended in […] complete medium and were stimulated with AMA1 peptides suspended in […] of complete medium. Peptide concentrations used in assays was 10 μg/ml of each peptide tested. Cultures were incubated for 36 h at 37° C., 5% CO2. Depending on availability of cells, each PBMC sample was assayed in duplicate, triplicate, or quadruplicate and the number of IFN-γ-secreting cells recognized as spot-forming cells (SFC) was enumerated using an automated ELISpot reader. In duplicate assays, all values were used in analysis. For triplicate or quadruplicate assays, outliers were rejected if any single value contributed more than 50% of the standard deviation of the triplicate (or quadruplicate) and if its value was three-fold greater or less than the average of the remaining two (or three) values. The mean spot forming cells (SFCs) obtained in negative control wells were subtracted from the value of each test well from the same sample. Negative counts generated by this background subtraction were converted to zero. The mean spot number of the test sample was then calculated and expressed as SFC/million PBMCs. Values obtained with pre-vaccinated samples were subtracted from the post-vaccination values.
In a further study, volunteers were immunized with AdCA. […]

[2] = test system: CD4+ and CD8+ T cells of PBMC; experiment: Intracellular cytokine staining (ICS) of CD4+ and CD8+ T cells; conditions: for CD8^+ T cell IFN-γ response in ICS: HLA-matched volunteers, FIG. 1 upper panel
Description: ICS was performed on PBMCs with costimulatory antibodies anti-CD28 and […] (obtained from BD Bioscience™, San Jose, Calif.). The peptides were used at the same concentrations as in ELISpot assays. Stimulants were added t cells and incubated at 37° C. with 5% CO2 for 2 hr. Golgi Plug™ (Brefeldin A) (BD Bioscience™, San Jose, Calif.) was added at a final concentration of 0.6 μL/mL and incubated at 37° C. with 5% CO2 overnight. Cells were stained with anti-CD3 (Alexa Fluor 700™), anti-CD4 (PerCP™), and anti-CD8 Pacific Blue™ (obtained from BD Bioscience™, San Jose, Calif.). and 1 μg/mL of live/dead fixable blue dye, incubated and washed. Cells were permeabilized with Cytofix/Cytoperm™ solution (obtained from BD Bioscience™, San Jose, Calif.), incubated and washed. Cells were stained intracellularly with anti-CD3 ([…]), anti-CD4 (PerCP™), and anti-CD8 Pacific Blue™, anti-IFN-γ FITC, anti-TNF PE, and anti-IL2 APC, incubated and washed. Cells were resuspended and the entire available sample was acquired by flowcytometry. The gating strategy included progressively measuring total cells; viable cells only; lymphocytes; T cells; CD4^+ CD8^+ populations; and a specific cell type expressing a specific cytokine. Histograms were used to determine the total production of IFN-γ, IL2, and TNF for the CD4^+ and CD8^+ populations. Boolean gates were used to determine cells producing combinations of cytokines.
In these studies, T cells containing IFN-γ, IL2, or TNFα, were gated into different subsets: IFN-γ+, IL2+, TNFα−; IFN-γ+, IL2-, TNFα+; IFN-γ+, IL2+, TNFα+; or IFN-γ+, IL2−, TNFα− T cells, and stimulated with the predicted epitopes and their parent peptide pool. The frequency of CD8^+ T cells producing total IFN-γ was far greater than CD4^+ T cell responses (FIG. 1, upper panel), which were extremely low.

[3] = test system: CD8+ or CD4+ T-cell depleted PBMC; experiment: ELISpot IFN-γ assay after CD8+ or CD4+ T-cell depletion (Example 2, Table 6); conditions: for CD4^+ depletion % change / CD8^+ Depletion % change / CD4^+ depletion, test / CD8^+ Depletion, test / CD4^+ depletion, control / CD8^+ Depletion, control: Vol. 1550-11; for CD4^+ depletion, test: CD4+ depleted; for CD8^+ Depletion, test: CD8+ depleted
Description: PBMC population depletion was conducted using anti-human CD4+ and anti-CD8^+ coated Dynabeads™ M-450 (Dynal, Great Neck, N.Y.) following the manufacturer's instructions. Mock depletion was done with Dynabeads coated with Sheep anti-mouse IgG. Flow cytometry confirmed that T-cell subset depletions were >99% in all experiments. The data is presented as the % effect (decrease) in activity after T cell subset depletion. […]
The results of this study, summarized in Table 6, identified other CD8^+ epitopes, associated specific HLA class I genes.

PBMC [4] = experiment: ELISpot IFN-γ assay with PBMC of Ad5-PfCA immunized volunteers (Example 1); conditions: threshold 40 SFC/million
Description: In order to assess the pools for their ability to induce T-cell responses, specifically CD 8^+ responses, PBMC, 1 month post immunization were used, from the five volunteers in Table 1, in ELISpot assays. In these studies, IFN-γ activity was measured in response to exposure to the peptide pools. The assays were conducted essentially as described by Wang, et al., Proc. Natl. Acad. Sci. (U.S.A.), 98: 10817-22.
as §1

## KSHGKGYNW (listed as Plasmodium falciparum)
PBMC [1]; Vol. 1550-10
  Unfract. PBMC: 159 SFC/10^6
PBMC [1]; Vol. 1550-18
  Unfract. PBMC: 181 SFC/10^6

## NEFPAIDLF (listed as Plasmodium falciparum) [Epitope 2]
[2]
  CD8^+ T cell IFN-γ response in ICS: equal or more CD8^+ IFN-γ than the parent peptide pool

## NEVVVKEEY [Epitope 1, NEVVVKEEY]
[2]
  CD8^+ T cell IFN-γ response in ICS: equal or more CD8^+ IFN-γ than the parent peptide pool

## REHPKEYEYPLHQEH [Ap1-12]
[3]; 4 wk post challenge
  CD4^+ depletion % change: 78%
  CD8^+ Depletion % change: 70%
  CD4^+ depletion, test: 28 SFC/10^6
  CD8^+ Depletion, test: 37 SFC/10^6
  CD4^+ depletion, control: 126 SFC/10^6
  CD8^+ Depletion, control: 126 SFC/10^6
[3]; Pre-challenge
  CD4^+ depletion % change: 59%
  CD8^+ Depletion % change: 49%
  CD4^+ depletion, test: 67 SFC/10^6
  CD8^+ Depletion, test: 83 SFC/10^6
  CD4^+ depletion, control: 161 SFC/10^6
  CD8^+ Depletion, control: 161 SFC/10^6
[3]; summary of Table 6
  reduction in ELISpot response after depletion of CD8^+ T-cells: 49-66%
PBMC [4]; Volunteer 002
  IFN-γ ELISpot activity of individual 15-mer peptide: 66 SFC/10^6
PBMC [4]; Volunteer 005
  IFN-γ ELISpot activity of individual 15-mer peptide: 118 SFC/10^6
[2]; v001 and v005, FIG. 3
  CD4^+ versus CD8^+ T cell IFN-γ response (ICS and ELISpot depletion, words): strongly recognized by CD8^+ T cells; also recorded: induced both CD4^+ and CD8^+ T cell responses

## RYKSHGKGY (listed as Plasmodium falciparum) [Epitope 14]
[2]
  CD8^+ T cell IFN-γ response in ICS: very weak CD8^+ IFN-γ responses
[2]; v008 and v012, any two of IFN-γ, IL-2, TNF-α, FIG. 1 lower panel
  multifunctional CD8^+ T cell responses in ICS: did not appear to induce multifunctional responses

## TLDEMRHFY [Epitope 8]
[2]
  CD8^+ T cell IFN-γ response in ICS: equal or more CD8^+ IFN-γ than the parent peptide pool

## YKSHGKGYNW (listed as Plasmodium falciparum)
PBMC [1]; Vol. 1550-10
  Unfract. PBMC: 144 SFC/10^6
PBMC [1]; Vol. 1550-18
  Unfract. PBMC: 271 SFC/10^6
